According to patent US20240399000A1, “GADOLINIUM-BASED COMPOUND AND MRI CONTRAST AGENT COMPRISING SAME” (KYUNGPOOK NATIONAL UNIVERSITY INDUSTRY-ACADEMIC COOPERATION …, priority 2021, published 2024):

Legend:
[1] = Measurement of relaxivity (r1, r2) in 3T MRI phantom; assay type: physicochemical; conditions: tertiary distilled water, 0.0625-1 mM, linear regression, in mM-1 s-1 (unit assumed)
Protocol: The relaxivity (r1, r2) of each of synthesized Gd-DO3A-Pca, and cyclic commercial contrast agents Gadovist® and Dotarem® as comparison groups material was measured. Specifically, a phantom was prepared by diluting the gadolinium complex in tertiary distilled water to five concentrations (0.0625, 0.125, 0.25, 0.5, 1 mM), and then T1 and T2 relaxation times were measured in 3T MRI. Thus, R (Relaxation rate=1/T) of each concentration was calculated and the relaxivity (r1, r2) result of the gadolinium complex was obtained through linear regression analysis (see FIG. 3) and shown in a following Table 1.

amyloid beta polymer = amyloid beta polymer (Homo sapiens, UniProt P05067); test: Amyloid beta polymer targeting ability, MRI phantom experiment (9.4T); assay type: binding; conditions: incubated with amyloid beta polymer 37° C. 24 hours, washed, 9.4T MR
amyloid beta polymer, sequence (P05067 672-713 limits assumed): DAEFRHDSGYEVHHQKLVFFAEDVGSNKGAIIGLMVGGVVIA
Protocol: (1) 221.5 uL of HFIP was added to 1 mg of amyloid beta at a concentration of 1 mM, followed by shaking for 1 hour at room temperature using a shaker to remove preaggregation. (2) The amyloid beta from which the preaggregation was removed was dried, and 221.5 uL of DMSO was added thereto to achieve a 1 mM concentration. Using a mixer and sonicator, a suspension thereof was prepared, and 878.5 uL of PBS (1×, pH 7.4) was added thereto to achieve a 0.2 mM concentration. (3) After incubating the suspension at 37° C. for 4 days using a shaker, the polymerized amyloid beta polymer was dispensed by 200 μL. Then, 20 μL of a solution in which each of Gd-DO3A-Pca and the commercial contrast agent (Gadovist®) was dissolved in PBS at 2 mM concentration was added thereto. The incubation was carried out thereon at 37° C. for 24 hours using a shaker. (4) After 24 hours has elapsed, centrifugation was performed thereon to remove the supernatant therefrom. The amyloid beta polymer was washed using PBS. 200 μL of a solution of PBS:DMSO=9:1 was added to a pellet to prepare an MRI phantom sample. As a control, a phantom sample obtained by incubating only the amyloid beta polymer was used. […]

Structure (SMILES)	relaxivity r1 [1]	relaxivity r2 [1]	contrast enhancement / signal intensity of phantom vs phantom of only amyloid beta polymer (amyloid beta polymer)
O=C([O-])CN1CCN(CC(=O)[O-])CCN([C@H](CO)[C@H](O)CO)CCN(CC(=O)[O-])CC1.[Gd+3] (racemic) [Gadovist ®]	3.9 ± 0.1	4.8 ± 0.1	little difference in contrast enhancement effect
CNC[C@H](O)[C@@H](O)[C@H](O)[C@H](O)CO.O=C([O-])CN1CCN(CC(=O)[O-])CCN(CC(=O)O)CCN(CC(=O)[O-])CC1.[Gd+3] [Dotarem ®]	3.4 ± 0.1	3.9 ± 0.2	–
